In the NIST ThermoML archive (doi:10.1021/je200811n):
Numbers after ± are expanded uncertainties.

Settings: Hot wire method

F/C=C/C(F)(F)F [trans-1,3,3,3-tetrafluoropropene]
Settings | thermal conductivity [W/m/K]
293.73 K, 303 kPa, Gas | 0.01311 ± 0.00045
293.77 K, 95 kPa, Gas | 0.0133 ± 0.00045
293.85 K, 231 kPa, Gas | 0.01317 ± 0.00045
293.9 K, 400 kPa, Gas | 0.01318 ± 0.00045
294.04 K, 155 kPa, Gas | 0.01319 ± 0.00045
294.06 K, 345 kPa, Gas | 0.01312 ± 0.00045
294.27 K, 95 kPa, Gas | 0.01329 ± 0.00045
294.45 K, 343 kPa, Gas | 0.01318 ± 0.00045
301.02 K, 868 kPa, Liquid | 0.07405 ± 0.00082
301.09 K, 873 kPa, Liquid | 0.07375 ± 0.00082
301.25 K, 21041 kPa, Liquid | 0.08609 ± 0.00095
301.27 K, 15433 kPa, Liquid | 0.08285 ± 0.00091
301.28 K, 15438 kPa, Liquid | 0.08293 ± 0.001
301.32 K, 10268 kPa, Liquid | 0.07996 ± 0.00088
301.32 K, 21030 kPa, Liquid | 0.08586 ± 0.00094
301.33 K, 5341 kPa, Liquid | 0.07696 ± 0.00085
301.35 K, 15435 kPa, Liquid | 0.08267 ± 0.00092
301.36 K, 15436 kPa, Liquid | 0.08267 ± 0.00092
301.39 K, 877 kPa, Liquid | 0.07371 ± 0.00082
301.4 K, 10267 kPa, Liquid | 0.07978 ± 0.00088
301.41 K, 810 kPa, Liquid | 0.07351 ± 0.00082
301.41 K, 5340 kPa, Liquid | 0.07676 ± 0.00085
301.47 K, 877 kPa, Liquid | 0.07359 ± 0.00082
301.48 K, 201 kPa, Gas | 0.01405 ± 0.00048
301.5 K, 101 kPa, Gas | 0.01387 ± 0.00047
301.5 K, 812 kPa, Liquid | 0.07342 ± 0.00082
301.64 K, 15430 kPa, Liquid | 0.0828 ± 0.00091
301.69 K, 10267 kPa, Liquid | 0.07986 ± 0.00088
301.7 K, 201 kPa, Gas | 0.01393 ± 0.00047
301.71 K, 21026 kPa, Liquid | 0.08586 ± 0.00094
301.72 K, 5338 kPa, Liquid | 0.07673 ± 0.00085
301.73 K, 101 kPa, Gas | 0.01377 ± 0.00047
301.74 K, 15425 kPa, Liquid | 0.08254 ± 0.00091
301.75 K, 15438 kPa, Liquid | 0.08085 ± 0.00089
301.8 K, 875 kPa, Liquid | 0.07346 ± 0.00081
301.81 K, 10267 kPa, Liquid | 0.07952 ± 0.00088
301.82 K, 21035 kPa, Liquid | 0.08546 ± 0.00094
301.83 K, 5339 kPa, Liquid | 0.07652 ± 0.00085
301.9 K, 871 kPa, Liquid | 0.07331 ± 0.00081
301.92 K, 820 kPa, Liquid | 0.07315 ± 0.00081
301.95 K, 201 kPa, Gas | 0.01381 ± 0.00047
301.98 K, 101 kPa, Gas | 0.01368 ± 0.00046
302.06 K, 15424 kPa, Liquid | 0.08252 ± 0.00091
302.07 K, 283 kPa, Gas | 0.01426 ± 0.00048
302.13 K, 10265 kPa, Liquid | 0.07959 ± 0.00088
302.17 K, 5336 kPa, Liquid | 0.0765 ± 0.00085
302.2 K, 201 kPa, Gas | 0.01376 ± 0.00047
302.23 K, 21022 kPa, Liquid | 0.08536 ± 0.00094
302.24 K, 102 kPa, Gas | 0.01362 ± 0.00046
302.26 K, 867 kPa, Liquid | 0.07328 ± 0.00082
302.26 K, 10266 kPa, Liquid | 0.07933 ± 0.00088
302.28 K, 278 kPa, Gas | 0.01416 ± 0.00048
302.28 K, 835 kPa, Liquid | 0.07308 ± 0.00081
302.31 K, 5328 kPa, Liquid | 0.07627 ± 0.00084
302.38 K, 21010 kPa, Liquid | 0.0851 ± 0.00094
302.4 K, 858 kPa, Liquid | 0.07303 ± 0.00081
302.43 K, 15441 kPa, Liquid | 0.08206 ± 0.00091
302.46 K, 201 kPa, Gas | 0.01371 ± 0.00046
302.51 K, 101 kPa, Gas | 0.01358 ± 0.00046
302.51 K, 273 kPa, Gas | 0.01407 ± 0.00048
302.51 K, 345 kPa, Gas | 0.01391 ± 0.00047
302.52 K, 15424 kPa, Liquid | 0.08203 ± 0.00091
302.61 K, 10265 kPa, Liquid | 0.07929 ± 0.00088
302.67 K, 5319 kPa, Liquid | 0.07625 ± 0.00085
302.68 K, 15424 kPa, Liquid | 0.08166 ± 0.00091
302.74 K, 270 kPa, Gas | 0.01405 ± 0.00048
302.77 K, 10264 kPa, Liquid | 0.079 ± 0.00087
302.78 K, 847 kPa, Liquid | 0.07298 ± 0.00081
302.8 K, 868 kPa, Liquid | 0.07244 ± 0.00082
302.84 K, 5317 kPa, Liquid | 0.07599 ± 0.00085
302.84 K, 21005 kPa, Liquid | 0.08503 ± 0.00093
302.86 K, 345 kPa, Gas | 0.01388 ± 0.00047
302.91 K, 15440 kPa, Liquid | 0.08218 ± 0.0009
302.94 K, 321 kPa, Gas | 0.01444 ± 0.00049
302.99 K, 267 kPa, Gas | 0.01402 ± 0.00047
303 K, 21003 kPa, Liquid | 0.08496 ± 0.00093
303.03 K, 15420 kPa, Liquid | 0.08154 ± 0.00091
303.06 K, 201 kPa, Gas | 0.01387 ± 0.00047
303.09 K, 515 kPa, Gas | 0.01405 ± 0.00048
303.1 K, 443 kPa, Gas | 0.01398 ± 0.00047
303.22 K, 15419 kPa, Liquid | 0.08081 ± 0.00089
303.24 K, 345 kPa, Gas | 0.01392 ± 0.00047
303.3 K, 101 kPa, Gas | 0.01415 ± 0.00048
303.42 K, 515 kPa, Gas | 0.01408 ± 0.00048
303.44 K, 443 kPa, Gas | 0.01405 ± 0.00048
303.46 K, 201 kPa, Gas | 0.01405 ± 0.00048
303.5 K, 21000 kPa, Liquid | 0.08483 ± 0.00093
303.63 K, 345 kPa, Gas | 0.01394 ± 0.00047
303.77 K, 515 kPa, Gas | 0.01408 ± 0.00048
303.8 K, 441 kPa, Gas | 0.01404 ± 0.00048
303.82 K, 515 kPa, Gas | 0.01409 ± 0.00048
303.89 K, 201 kPa, Gas | 0.01411 ± 0.00048
304.06 K, 345 kPa, Gas | 0.01397 ± 0.00047
304.14 K, 515 kPa, Gas | 0.01407 ± 0.00048
304.18 K, 102 kPa, Gas | 0.01422 ± 0.00048
304.18 K, 441 kPa, Gas | 0.01406 ± 0.00048
304.34 K, 201 kPa, Gas | 0.01397 ± 0.00047
304.53 K, 514 kPa, Gas | 0.01408 ± 0.00048
304.57 K, 442 kPa, Gas | 0.01401 ± 0.00047
304.57 K, 514 kPa, Gas | 0.0141 ± 0.00048
304.66 K, 101 kPa, Gas | 0.0142 ± 0.00048
311.41 K, 326 kPa, Gas | 0.01522 ± 0.00051
311.43 K, 200 kPa, Gas | 0.01495 ± 0.0005
311.44 K, 102 kPa, Gas | 0.01483 ± 0.0005
311.61 K, 325 kPa, Gas | 0.01511 ± 0.00051
311.65 K, 200 kPa, Gas | 0.01482 ± 0.0005
311.67 K, 102 kPa, Gas | 0.01465 ± 0.00049
311.83 K, 325 kPa, Gas | 0.01504 ± 0.00051
311.89 K, 200 kPa, Gas | 0.0147 ± 0.0005
311.91 K, 101 kPa, Gas | 0.01455 ± 0.00049
312.06 K, 325 kPa, Gas | 0.015 ± 0.001
312.14 K, 200 kPa, Gas | 0.01462 ± 0.00049
312.16 K, 101 kPa, Gas | 0.01449 ± 0.00049

Settings | thermal conductivity [W/m/K]
303.15 K, Liquid | 0.07268 ± 0.00049
